Measured values published in US10265298B2, “Method of increasing the bioavailability of silybin” (Macau University of Science and Technology, priority 2017, dated 2019).

Assays:
[1] = after oral administration; cited from earlier work
[2] = tested on: MCD diet-induced NASH; assay: MCD diet-induced nonalcoholic steatohepatitis (NASH) mouse model; type: in vivo
Source text: Male wild-type (WT) mice C571BI/6 were fed either methionine/choline-sufficient (MCS) chow diet (Trophic Animal Feed High-tech Co., Ltd, China) or MCD diet (Trophic Animal Feed High-tech Co., Ltd, China) for 7 weeks. Animals were randomly divided into eight groups: 1) control, fed a standard control MCS diet and given vehicle (35% polyethylene glycol (PEG) 400:15% Cremophor EL:5% ethanol:45% saline); 2) rats fed a MCD diet and given vehicle; 3) rats fed the MCD diet and orally treated with silybin (300 milligrams per kilogram (mg/kg)); 4) rats fed the MCD diet and orally treated with silybin (150 mg/kg); 5) rats fed the MCD diet and orally treated with tangeretin (150 mg/kg); 6) rats fed the MCD diet and orally treated with 75 mg/kg silybin and 75 mg/kg tangeretin (SB & TG—L); 7) rats fed the MCD diet and orally treated 150 mg/kg silybin and 150 mg/kg tangeretin (SB & TG—M); 8) rats fed the MCD diet and orally treated with 300 mg/kg silybin and […]. Body weight was intermittently monitored during the diet-induction period and every two or three days during the intervention period.
At the end of 8 weeks, mice were sacrificed under ether anesthesia. The following procedures are same as the description under “2.10 Effects of silybin on acute liver damage induced by CCl4 in rats”. The cytokine levels including tumor necrosis factor alpha (TNF-α) (eBioscience Inc, San Diego, Calif., USA), interleukin-6 (IL-6) assay kit (Raybiotech, Norcross, Ga., USA) in serum of NASH model were further measured using commercially available enzyme-linked immunosorbent assay (ELISA) kits.

[3] = tested on: CCl4-induced acute liver injury; assay: CCl4-induced acute liver injury in rats; type: in vivo, rat
Procedure: Male SD rats were randomly divided into six groups: 1) Group I orally received blank vehicle for 7 days, and intraperitoneally (i.p.) injected with olive oil (2 ml/kg body weight) on day 7; 2) Group II orally received blank vehicle for 7 days, and injected with CCl4-olive oil mixture (40% CCl4, i.p., 2 ml/kg body weight) on day 7; 3) Group III was treated with silybin (100 mg/kg bodyweight, per os (p.o.) for 7 days, and injected with CCl4-olive oil mixture (40% CCl4, i.p., 2 ml/kg body weight) on day 7, 2 hour after administration of silybin; 4) Group IV was treated with silybin (100 mg/kg bodyweight, p.o.) and tangeretin (100 mg/kg bodyweight, p.o.) mixture for 7 days, and injected with CCl4-olive oil mixture (40% CCl4, i.p., 2 ml/kg body weight) on day 7, 2 hour after administration of the mixture; 5) Group V was treated with silybin (50 mg/kg bodyweight, p.o.) and tangeretin (50 mg/kg bodyweight, p.o.) mixture for 7 days, and injected with CCl4-olive oil mixture (40% CCl4, i.p., 2 ml/kg body weight) on day 7, 2 hour after administration of the mixture; 6) Group VI was treated with tangeretin (100 mg/kg bodyweight, p.o.) for 7 days, and injected with CCl4-olive oil mixture (40%, i.p., 2 ml/kg body weight) on day 7, 2 hour after administration of tangeretin. Model and control group were daily treated orally with blank solvent (35% PEG400: 15% Cremophor EL: 5% ethanol: 45% saline).
24 hours after the CCl4-induced toxic liver injury was initiated, rats were sacrificed under ether anesthesia. Blood was collected from the abdominal aorta for biochemical estimations. The liver was immediately removed and weighed. A large portion of the liver was snap-frozen in the liquid nitrogen and the remaining tissue was fixed in 10% buffer formalin, processed and embedded in paraffin for histological examination after hematoxylin and eosin (H&E) staining. Steatohepatitis was evaluated by level of alanine aminotransferase (ALT), aspartate aminotransferase (AST), triglycerides, total cholesterol and superoxide dismutase (SOD) using commercial kits (Nanjing Jiancheng Bioengineering Institute, Nanjing, China) according to manufacturer's instructions and histological assessment and scoring according to standardized criteria by a pathologist blind to the study.

[4] = in vitro; type: in vitro ADME, rat; conditions: male, Sprague Dawley, rat
Procedure: Sandwich-cultured rat hepatocytes (SCHs) were established according to previously described methods with minor modifications. Primary rat hepatocytes were isolated from male Sprague Dawley® (SD) rats (220-270 g) using a collagenase perfusion as described previously and plated at a density of 7.4×10^5 cells/2 ml/well onto six-well BioCoat plates. Approximately 24 hours later, hepatocytes were overlaid with 2 ml of 0.25 mg/ml BD Matrigel basement membrane matrix in Dulbecco's modified Eagle medium (DMEM) containing 1% volume by volume percentage (v/v) insulin/transferrin/selenium culture supplement, […] dexamethasone, 2 mM L-glutamine, 1% (v/v) minimum essential medium nonessential amino acids, 1% penicillin-streptomycin. Hepatocytes were cultured for 4 days to allow extensive formation of canalicular networks between cells before experimentation and the medium was changed daily.
Sandwich-cultured hepatocytes (SCHs) were pre-incubated in 2 milliliters (ml) of warm Hank's Balanced Salt Solution (HBSS) with or without Ca^2+ at 37° C. for 15 minutes; the tight junctions of the bile canaliculi open temporally after exposure to HBSS without Ca^2+. Subsequently, cells were incubated at 37° C. for 20 minutes with 1.5 ml of standard HBSS containing silybin (10 μM), or MK 571 (50 μM) as a positive control, or baicalein (25, 15.8, 5, 1.58, 0.5, 0.16 μM), or tangeretin (25, 15.8, 5, 1.58, 0.5 μM). After 20 min, cells were washed three times with ice-cold standard HBSS. The cell samples were lysed by sonication in 1 ml of water for 5 seconds with the ultrasonic cell disruption system (SONICS & […], INC., Newtown, Conn., USA). Conjugated silybin and unconjugated (free) silybin were quantified by high-performance liquid chromatography-tandem mass spectrometry (HPLC-MS/MS). Transport function was normalized to the protein content of the hepatocytes which was evaluated by bicinchoninic acid (BCA) protein assay (Pierce Chemical, Rockford, Ill.). The biliary excretion index (BEI; %) and in vitro biliary clearance (Clbiliary; ml/min/kg) were calculated by using B-CLEAR technology (Qualyst, Inc., Research Triangle Park, N.C.) based on the following equations: […]

SMILES	share metabolized to glucuronide conjugates in human plasma [1]	share metabolized to sulfate conjugates in human plasma [1]	MCD diet-induced TC and TG increase ([2]; mice on MCD diet)	body weight ([2]; mice on MCD diet)	lipid accumulation and inflammatory infiltration in liver (H&E) ([2]; mice on MCD diet)	liver/body weight ratio ([2]; mice on MCD diet)	MCD diet-induced elevation of ALT, AST, MDA, SOD, GSH and GSH/GSSG ratio ([2]; silybin 300 mg/kg, silybin-tangeretin treatment)	liver/body ratio ([2]; silybin by co-treatment with tangeretin, FIG. 35A)	body weight and liver weight ([2]; silybin by co-treatment with tangeretin, FIG. 35B, 35C)	MCD diet-induced cytokines elevation (IL-1β, TNF-α, IL-6) ([2]; silybin treatment in the absence or presence of tangeretin)	serum TG and TC levels ([3]; 100 mg/kg of silybin, p<0.01)	CCl4-induced macroscopic and histopathological liver changes (H&E) ([3]; 7 days oral pre-treatment, 24 hours after CCl4)	CCl4-induced increase of liver weight and liver to body weight ratio ([3]; 7 days oral pre-treatment, 24 hours after CCl4, p<0.05)	CCl4-induced increase of serum activity of ALT and AST ([3]; silybin 100 mg/kg for seven consecutive days)	inhibition at 20 min [4] [%]
COc1cc(C2Oc3cc([C@H]4Oc5cc(O)cc(O)c5C(=O)[C@@H]4O)ccc3OC2CO)ccc1O (stereo partly drawn) [silybin]	about 55%	about 28%	clearly inhibited	slightly increased	decreased	moderate decrease	suppressed	significantly decreased	did not significantly affect	suppressed	attenuated increases	less prominent	negated	significantly prevented	
COc1ccc(-c2cc(=O)c3c(OC)c(OC)c(OC)c(OC)c3o2)cc1 [tangeretin]															~90
